# Results as given in patent US20210255193A1, “LYSINE REACTIVE PROBES AND USES THEREOF” (The Scripps Research Institute, priority 2017, published 2021).
# Key:
# Test in all cases: competitive isoTOP-ABPP
# Type in all cases: binding
# [1] = target: T1, GLOD4 Glyoxalase domain-containing protein 4 (Homo sapiens, UniProt Q9HC38); details: for isoTOP-ABPP reactivity ratio at lysine Q9HC38_K305 / isoTOP-ABPP ratio (R) at liganded lysine Q9HC38_K305: 50 uM, in vitro; for isoTOP-ABPP reactivity ratio at lysine Q9HC38_K305: 231 sol; for isoTOP-ABPP ratio (R) at liganded lysine Q9HC38_K305: sol, 231
# T1 construct: endogenous in cells; host or cells: MDA-MB-231 (soluble fraction of lysate)
# T1 sequence (Q9HC38 1-313): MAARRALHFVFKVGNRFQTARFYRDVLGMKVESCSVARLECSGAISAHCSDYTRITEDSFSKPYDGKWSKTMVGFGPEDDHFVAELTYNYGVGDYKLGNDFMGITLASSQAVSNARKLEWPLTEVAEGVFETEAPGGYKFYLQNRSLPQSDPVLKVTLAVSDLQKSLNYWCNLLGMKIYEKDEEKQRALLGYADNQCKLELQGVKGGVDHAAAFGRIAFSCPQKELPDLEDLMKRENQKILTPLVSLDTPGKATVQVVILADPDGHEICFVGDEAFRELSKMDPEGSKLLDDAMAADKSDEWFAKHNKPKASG
# How it was run: (§1)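 Cell lysate (0.5 ml) was pre-treated with fragment, 50 μM for activated esters or 100 μM for guanidinylating agents, versus DMSO, then labeled 1 h at ambient temperature with 0.1 mM STP-alkyne. Light/heavy TEV tags attached by CuAAC; R = DMSO/compound MS1 peak-area ratio, median per lysine.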
# [2] = target: T2, TRAP1 Heat shock protein 75 kDa, mitochondrial (Homo sapiens, UniProt Q12931); details: for isoTOP-ABPP reactivity ratio at lysine Q12931_K699 / isoTOP-ABPP ratio (R) at liganded lysine Q12931_K699: 50 uM, in vitro; for isoTOP-ABPP reactivity ratio at lysine Q12931_K699: 231 sol; for isoTOP-ABPP ratio (R) at liganded lysine Q12931_K699: sol, 231
# T2 construct: isoTOP-ABPP experiments performed in cell lysates (in vitro); endogenous in cells; host or cells: soluble proteome of human cancer cell lines (MDA-MB-231, Ramos, Jurkat)
# T2 sequence (Q12931 60-704): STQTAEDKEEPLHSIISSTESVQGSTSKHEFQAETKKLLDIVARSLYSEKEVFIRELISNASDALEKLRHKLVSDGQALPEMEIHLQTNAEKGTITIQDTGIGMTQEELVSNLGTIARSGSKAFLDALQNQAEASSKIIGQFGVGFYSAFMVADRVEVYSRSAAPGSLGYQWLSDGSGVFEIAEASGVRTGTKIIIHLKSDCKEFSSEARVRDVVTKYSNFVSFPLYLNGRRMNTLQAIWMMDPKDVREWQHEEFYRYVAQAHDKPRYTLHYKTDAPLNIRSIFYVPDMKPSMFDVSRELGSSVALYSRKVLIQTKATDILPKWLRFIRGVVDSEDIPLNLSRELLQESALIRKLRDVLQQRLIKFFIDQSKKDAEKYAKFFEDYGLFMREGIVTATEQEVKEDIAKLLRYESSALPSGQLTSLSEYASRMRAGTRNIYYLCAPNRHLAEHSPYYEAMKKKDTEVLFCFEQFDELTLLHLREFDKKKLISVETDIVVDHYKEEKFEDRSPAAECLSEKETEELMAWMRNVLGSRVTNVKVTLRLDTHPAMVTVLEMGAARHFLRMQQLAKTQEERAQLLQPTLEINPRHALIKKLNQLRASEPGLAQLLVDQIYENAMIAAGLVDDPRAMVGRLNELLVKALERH
# How it was run: as §1
# [3] = target: T3, OLA1 Obg-like ATPase 1 (Homo sapiens, UniProt Q9NTK5); details: for isoTOP-ABPP reactivity ratio at lysine Q9NTK5_K248 / isoTOP-ABPP ratio (R) at liganded lysine Q9NTK5_K248: 50 uM, in vitro; for isoTOP-ABPP reactivity ratio at lysine Q9NTK5_K248: 231 sol; for isoTOP-ABPP ratio (R) at liganded lysine Q9NTK5_K248: sol, 231
# T3 construct: endogenous in cells; host or cells: MDA-MB-231 (soluble fraction of lysate)
# How it was run: as §1
SMILES,isoTOP-ABPP reactivity ratio at lysine Q9HC38_K305 [1],isoTOP-ABPP reactivity ratio at lysine Q12931_K699 [2],isoTOP-ABPP reactivity ratio at lysine Q9NTK5_K248 [3],isoTOP-ABPP ratio (R) at liganded lysine Q9HC38_K305 [1],isoTOP-ABPP ratio (R) at liganded lysine Q12931_K699 [2],isoTOP-ABPP ratio (R) at liganded lysine Q9NTK5_K248 [3],other results
"N#Cc1ccc(C(=O)Oc2ccc([N+](=O)[O-])cc2[N+](=O)[O-])cc1 [fragment 44, 2,4-Dinitrophenyl 4-cyanobenzoate]",,,,,,,"isoTOP-ABPP ratio, lysine Q9HC38_K305 ([1]; 50 uM_231_sol_in vitro): 0.5; isoTOP-ABPP ratio, lysine Q12931_K699 ([2]; 50 uM_231_sol_in vitro): 0.9; isoTOP-ABPP ratio, lysine Q9NTK5_K248 ([3]; 50 uM_231_sol_in vitro): 1.1"
"O=C(Oc1ccc([N+](=O)[O-])cc1[N+](=O)[O-])C(c1ccccc1)c1ccccc1 [fragment 30, 2,4-Dinitrophenyl 2,2-diphenylacetate]",0.6,4.1,1.0,,,,
"O=C(Oc1ccc([N+](=O)[O-])cc1[N+](=O)[O-])c1ccc(Oc2ccccc2)cc1 [fragment 39, 2,4-Dinitrophenyl 4-phenoxybenzoate]",,,,0.8,0.9,0.9,
"O=C(Oc1ccc([N+](=O)[O-])cc1[N+](=O)[O-])c1ccc(-c2ccccc2)cc1 [fragment 37, 2,4-Dinitrophenyl [1,1′-biphenyl]-4-carboxylate]",,,,0.6,0.9,0.9,
"COc1cc(CCC(=O)Oc2ccc([N+](=O)[O-])cc2[N+](=O)[O-])cc(OC)c1OC [fragment 33, 2,4-Dinitrophenyl 3-(3,4,5-trimethoxyphenyl)propanoate]",0.4,1.5,1.0,,,,
"CC(=O)Oc1ccc([N+](=O)[O-])cc1[N+](=O)[O-] [fragment 43, 2,4-Dinitrophenyl acetate]",,,,0.7,1.0,1.0,
"CCn1cc(C(=O)Oc2c(F)c(F)c(F)c(F)c2F)c(=O)c2ccc(C)nc21 [fragment 28, Pentafluorophenyl 1-ethyl-7-methyl-4-oxo-1,4-dihydro-1,8-naphthyridine-3-carboxylate]",1.0,0.9,1.0,,,,
